# Test system: Mus musculus
# Test: Analgesic activity in Swiss albino mouse assessed as latancy of withdrawing tail at 50 mg/kg, po measured after 2 hrs by tail flick test relative to control
# Format: functional
# Settings: not given
row,Structure (SMILES),MPE
1,COc1ccc2cc(C(C)c3nc4s/c(=C\c5ccc(OCc6ccccc6)cc5)c(=O)n4n3)ccc2c1 (configuration not stated),24.4%
2,COc1ccc2cc(C(C)c3nc4s/c(=C\c5ccco5)c(=O)n4n3)ccc2c1 (configuration not stated),13.3%
3,COc1ccc2cc(C(C)c3nc4s/c(=C\c5cccc(OC(C)=O)c5)c(=O)n4n3)ccc2c1 (configuration not stated),19.2%
4,COc1ccc2cc(C(C)c3nc4s/c(=C\c5ccccc5OCc5ccccc5)c(=O)n4n3)ccc2c1 (configuration not stated),18.9%
5,COc1ccc2cc([C@H](C)C(=O)O)ccc2c1 [NAPROXEN],47.6%

# Test system: Mus musculus
# Test: Gastrointestinal toxicity in Swiss albino mouse assessed as ulcer index at 100 mg/kg, po measured after 2 hrs
# Format: organism-based
# Parameters: dose 100 mg/kg, route oral
# Settings: in vivo
row,Structure (SMILES),UI
1,COc1ccc2cc(C(C)c3nc4s/c(=C\c5ccc(OCc6ccccc6)cc5)c(=O)n4n3)ccc2c1 (configuration not stated),2.7
2,COc1ccc2cc(C(C)c3nc4s/c(=C\c5ccco5)c(=O)n4n3)ccc2c1 (configuration not stated),1.9
3,COc1ccc2cc(C(C)c3nc4s/c(=C\c5cccc(OC(C)=O)c5)c(=O)n4n3)ccc2c1 (configuration not stated),2.4
4,COc1ccc2cc(C(C)c3nc4s/c(=C\c5ccccc5OCc5ccccc5)c(=O)n4n3)ccc2c1 (configuration not stated),2.6
5,COc1ccc2cc([C@H](C)C(=O)O)ccc2c1 [NAPROXEN],4.2

# Test system: Mus musculus
# Test: Acute toxicity in Swiss albino mouse assessed as mortality at 50 to 100 mg/kg, po measured after 6 hrs to 14 days
# Format: organism-based
# Parameters: dose 50-100 mg/kg, route oral
# Settings: in vivo
row,Structure (SMILES),Activity
1,COc1ccc2cc(C(C)c3nc4s/c(=C\c5ccc(OCc6ccccc6)cc5)c(=O)n4n3)ccc2c1 (configuration not stated),Non-toxic
2,COc1ccc2cc(C(C)c3nc4s/c(=C\c5ccco5)c(=O)n4n3)ccc2c1 (configuration not stated),Non-toxic
3,COc1ccc2cc(C(C)c3nc4s/c(=C\c5cccc(OC(C)=O)c5)c(=O)n4n3)ccc2c1 (configuration not stated),Non-toxic
4,COc1ccc2cc(C(C)c3nc4s/c(=C\c5ccccc5OCc5ccccc5)c(=O)n4n3)ccc2c1 (configuration not stated),Non-toxic

# Test system: Mus musculus
# Test: Antiinflammatory activity in Swiss albino mouse assessed as inhibition of carrageenan-induced paw edema at 100 mg/kg, po administered 1 hr prior to carrageenan challenge measured after 2 hrs relative to control
# Format: functional
# Parameters: scale not given: the % may be the effect or the level left
# Settings: not given
row,Structure (SMILES),Activity
1,COc1ccc2cc(C(C)c3nc4s/c(=C\c5ccc(OCc6ccccc6)cc5)c(=O)n4n3)ccc2c1 (configuration not stated),32.5%
2,COc1ccc2cc(C(C)c3nc4s/c(=C\c5ccco5)c(=O)n4n3)ccc2c1 (configuration not stated),26%
3,COc1ccc2cc(C(C)c3nc4s/c(=C\c5cccc(OC(C)=O)c5)c(=O)n4n3)ccc2c1 (configuration not stated),29.1%
4,COc1ccc2cc(C(C)c3nc4s/c(=C\c5ccccc5OCc5ccccc5)c(=O)n4n3)ccc2c1 (configuration not stated),33.9%
5,COc1ccc2cc([C@H](C)C(=O)O)ccc2c1 [NAPROXEN],53.3%

# Test system: Mus musculus
# Test: Analgesic activity in Swiss albino mouse assessed as time of licking paws at 50 mg/kg, po measured after 2 hrs by tail flick test relative to control
# Format: functional
# Settings: not given
row,Structure (SMILES),MPE
1,COc1ccc2cc(C(C)c3nc4s/c(=C\c5ccc(OCc6ccccc6)cc5)c(=O)n4n3)ccc2c1 (configuration not stated),23.6%
2,COc1ccc2cc(C(C)c3nc4s/c(=C\c5ccco5)c(=O)n4n3)ccc2c1 (configuration not stated),19.7%
3,COc1ccc2cc(C(C)c3nc4s/c(=C\c5cccc(OC(C)=O)c5)c(=O)n4n3)ccc2c1 (configuration not stated),17.5%
4,COc1ccc2cc(C(C)c3nc4s/c(=C\c5ccccc5OCc5ccccc5)c(=O)n4n3)ccc2c1 (configuration not stated),17.7%
5,COc1ccc2cc([C@H](C)C(=O)O)ccc2c1 [NAPROXEN],39.3%

# Test system: Mus musculus
# Test: Analgesic activity in Swiss albino mouse assessed as latancy of withdrawing tail at 100 mg/kg, po measured after 2 hrs by tail flick test relative to control
# Format: functional
# Settings: not given
row,Structure (SMILES),MPE
1,COc1ccc2cc(C(C)c3nc4s/c(=C\c5ccc(OCc6ccccc6)cc5)c(=O)n4n3)ccc2c1 (configuration not stated),28.1%
2,COc1ccc2cc(C(C)c3nc4s/c(=C\c5ccco5)c(=O)n4n3)ccc2c1 (configuration not stated),19.3%
3,COc1ccc2cc(C(C)c3nc4s/c(=C\c5cccc(OC(C)=O)c5)c(=O)n4n3)ccc2c1 (configuration not stated),20%
4,COc1ccc2cc(C(C)c3nc4s/c(=C\c5ccccc5OCc5ccccc5)c(=O)n4n3)ccc2c1 (configuration not stated),18%
5,COc1ccc2cc([C@H](C)C(=O)O)ccc2c1 [NAPROXEN],49.4%

# Test system: Mus musculus
# Test: Antiinflammatory activity in Swiss albino mouse assessed as inhibition of carrageenan-induced paw edema at 50 mg/kg, po administered 1 hr prior to carrageenan challenge measured after 2 hrs relative to control
# Format: functional
# Parameters: scale not given: the % may be the effect or the level left
# Settings: not given
row,Structure (SMILES),Activity
1,COc1ccc2cc(C(C)c3nc4s/c(=C\c5ccc(OCc6ccccc6)cc5)c(=O)n4n3)ccc2c1 (configuration not stated),44.5%
2,COc1ccc2cc(C(C)c3nc4s/c(=C\c5ccco5)c(=O)n4n3)ccc2c1 (configuration not stated),15.2%
3,COc1ccc2cc(C(C)c3nc4s/c(=C\c5cccc(OC(C)=O)c5)c(=O)n4n3)ccc2c1 (configuration not stated),31.6%
4,COc1ccc2cc(C(C)c3nc4s/c(=C\c5ccccc5OCc5ccccc5)c(=O)n4n3)ccc2c1 (configuration not stated),43%
5,COc1ccc2cc([C@H](C)C(=O)O)ccc2c1 [NAPROXEN],49.2%

# Test system: Mus musculus
# Test: Acute toxicity in Swiss albino mouse assessed as weight loss at 50 to 100 mg/kg, po measured up to 14 days
# Format: organism-based
# Parameters: dose 50-100 mg/kg, route oral
# Settings: in vivo, 336 h
row,Structure (SMILES),Activity
1,COc1ccc2cc(C(C)c3nc4s/c(=C\c5ccc(OCc6ccccc6)cc5)c(=O)n4n3)ccc2c1 (configuration not stated),Non-toxic
2,COc1ccc2cc(C(C)c3nc4s/c(=C\c5ccco5)c(=O)n4n3)ccc2c1 (configuration not stated),Non-toxic
3,COc1ccc2cc(C(C)c3nc4s/c(=C\c5cccc(OC(C)=O)c5)c(=O)n4n3)ccc2c1 (configuration not stated),Non-toxic
4,COc1ccc2cc(C(C)c3nc4s/c(=C\c5ccccc5OCc5ccccc5)c(=O)n4n3)ccc2c1 (configuration not stated),Non-toxic

# Test system: Mus musculus
# Test: Analgesic activity in Swiss albino mouse assessed as time of licking paws at 100 mg/kg, po measured after 2 hrs by tail flick test relative to control
# Format: functional
# Settings: not given
row,Structure (SMILES),MPE
1,COc1ccc2cc(C(C)c3nc4s/c(=C\c5ccc(OCc6ccccc6)cc5)c(=O)n4n3)ccc2c1 (configuration not stated),14.5%
2,COc1ccc2cc(C(C)c3nc4s/c(=C\c5ccco5)c(=O)n4n3)ccc2c1 (configuration not stated),22%
3,COc1ccc2cc(C(C)c3nc4s/c(=C\c5cccc(OC(C)=O)c5)c(=O)n4n3)ccc2c1 (configuration not stated),20.7%
4,COc1ccc2cc(C(C)c3nc4s/c(=C\c5ccccc5OCc5ccccc5)c(=O)n4n3)ccc2c1 (configuration not stated),25.2%
5,COc1ccc2cc([C@H](C)C(=O)O)ccc2c1 [NAPROXEN],38.6%

# Test system: Mus musculus
# Test: Acute toxicity in Swiss albino mouse assessed as behavioral changes at 50 to 100 mg/kg, po measured up to 14 days
# Format: organism-based
# Parameters: dose 50-100 mg/kg, route oral
# Settings: in vivo, 336 h
row,Structure (SMILES),Activity
1,COc1ccc2cc(C(C)c3nc4s/c(=C\c5ccc(OCc6ccccc6)cc5)c(=O)n4n3)ccc2c1 (configuration not stated),Non-toxic
2,COc1ccc2cc(C(C)c3nc4s/c(=C\c5ccco5)c(=O)n4n3)ccc2c1 (configuration not stated),Non-toxic
3,COc1ccc2cc(C(C)c3nc4s/c(=C\c5cccc(OC(C)=O)c5)c(=O)n4n3)ccc2c1 (configuration not stated),Non-toxic
4,COc1ccc2cc(C(C)c3nc4s/c(=C\c5ccccc5OCc5ccccc5)c(=O)n4n3)ccc2c1 (configuration not stated),Non-toxic

# Test system: Mus musculus
# Test: Gastrointestinal toxicity in Swiss albino mouse assessed as ulcer index at 50 mg/kg, po measured after 2 hrs
# Format: organism-based
# Parameters: dose 50 mg/kg, route oral
# Settings: in vivo
row,Structure (SMILES),UI
1,COc1ccc2cc(C(C)c3nc4s/c(=C\c5ccc(OCc6ccccc6)cc5)c(=O)n4n3)ccc2c1 (configuration not stated),3
2,COc1ccc2cc(C(C)c3nc4s/c(=C\c5ccco5)c(=O)n4n3)ccc2c1 (configuration not stated),2.6
3,COc1ccc2cc(C(C)c3nc4s/c(=C\c5cccc(OC(C)=O)c5)c(=O)n4n3)ccc2c1 (configuration not stated),2.9
4,COc1ccc2cc(C(C)c3nc4s/c(=C\c5ccccc5OCc5ccccc5)c(=O)n4n3)ccc2c1 (configuration not stated),2.4
5,COc1ccc2cc([C@H](C)C(=O)O)ccc2c1 [NAPROXEN],3.6
